Measurements taken from patent US11951092B2, “Agent for preventing or treating brain atrophy” (FUJIFILM Toyama Chemical Co., Ltd., priority 2017, dated 2024).

Tests used:
[1] = tested on: mild to moderate AD patients (brain volume: whole brain, hippocampus, 101 areas); experiment: Test Example 1: Phase II placebo-controlled trial, brain volume change by volumetric MRI; type: in vivo, human; details: for Change in brain volume, Hippocampus, Least square means / Change in brain volume, Whole brain, Least square means / Change in brain volume, Hippocampus, Difference from placebo group / Change in brain volume, Whole brain, Difference from placebo group: vMRI at week 52 from baseline
Text: Multicenter Randomized Double-Blind Phase II Placebo-Controlled Trial for Assessing Effectiveness and Safety of Compound A in Mild to Moderate AD Patients Subject (selection criteria): Patients were screened in a period from 42 days before treatment assignment to the assignment based on the following selection criteria.
Patients who were probable AD and are 55 years old or older and 85 years old or younger at the time of obtaining consent of screening.
Patients with an MMSE score of 12 to 22 at the time of screening
(§1) Patients with a Modified Hachinski Ischemia Scale score of 4 or less
Patients who have been treated with a donepezil hydrochloride or rivastigmine transdermal system for at least 4 months before the baseline and with a stable dose thereof for 3 months before the baseline.
In the case of patients who have received memantine in addition to being treated with a donepezil hydrochloride or rivastigmine transdermal system, patients who have been treated with memantine for at least 4 months before the baseline and with a stable dose thereof for 3 months before the baseline.
Patients whose brain MRI or CT results match AD at the time of screening
Organization of groups: Patients matched (484 patients) were randomly divided into the following 3 groups and the trial was started.
(1) High dose group: 224 mg of a test compound (160 mg in terms of Compound A) was orally administered once a day for 4 weeks and then 448 mg of a test compound (320 mg in terms of Compound A) was orally administered once a day for 48 weeks (158 patients)
(2) Low dose group: 224 mg of a test compound (160 mg in terms of Compound A) was orally administered once a day for 52 weeks (166 patients)
(3) Placebo group: placebo was orally administered once a day for 52 weeks (158 patients)
(§2) Brain volume of subjects was measured by vMRI scan at the screening and after 52 weeks, and the volume change of the whole brain and the hippocampus of the subjects were quantified to assess brain atrophy based on the change from the screening.
Furthermore, volume change of the whole brain and 101 areas (obtained by dividing the areas existing in both the left brain and the right brain of the Brodmann areas (1 to 52) into 101 areas) in each subject was quantified to assess brain atrophy based on the change from the screening.
Changes in the volume of the whole brain and the hippocampus after 52 weeks from the baseline were compared between the high dose group and the placebo group, and between the low dose group and the placebo group based on Mixed-effect Models. For models, the treatment groups were included as a fixed effect, age, baseline of the respective brain volumes (the whole brain or the hippocampus), baseline of MMSE and ApoE4 genotype (positive/negative) were included as covariates, and trial sites were included as a random effect.
Furthermore, changes in the respective volumes of the whole brain and the 101 areas after 52 weeks from the baseline were compared between the high dose group and the placebo group, and between the low dose group and the placebo group.

[2] = tested on: mild to moderate AD patients (brain volume: whole brain, hippocampus); experiment: Test Example 2: Early Phase II placebo-controlled trial, brain volume change by volumetric MRI; type: in vivo, human
Text: Multicenter Randomized Double-Blind Early Phase II Placebo-Controlled Trial for Assessing Effectiveness and Safety of Compound A in Mild to Moderate AD Patients
Patients were screened in a period from 28 days before treatment assignment to the assignment based on the following selection criteria. Patients matched (373 patients) were randomly divided into the following 2 groups and the trial was started.
Patients who were probable AD and over or 50 years old or older and 90 years old or younger at the time of obtaining consent of screening.
Patients with an MMSE score of 15 to 24 at the time of screening
as §1
Patients who have been treated with a donepezil hydrochloride for at least 6 months before the baseline and with a stable dose thereof for 3 months before the baseline.
Patients whose brain MRI or CT results match AD at the time of screening Organization of groups:
(1) Active drug group: 224 mg of a test compound (160 mg in terms of Compound A) was orally administered once a day for 52 weeks (176 patients)
(2) Placebo group: placebo was orally administered once a day for 52 weeks (178 patients) Method of assessment:
as §2
The mean amount of volume change of the whole brain and the hippocampus after 52 weeks from the baseline, standard deviation and the difference from the placebo group were calculated.

[3] = Compound A group vs placebo group, week 52 from baseline
[4] = High dose group (160 mg for 4 weeks then 320 mg in terms of Compound A, oral once a day, 48 weeks)
[5] = Low dose group (160 mg in terms of Compound A, oral once a day, 52 weeks)
[6] = Low dose (active drug) group, 160 mg in terms of Compound A oral once a day, 52 weeks, vMRI at week 52 from baseline
[7] = Low dose (active drug) group, vMRI at week 52 from baseline

**Q.** With `OC1CN(CCCOCCc2ccc3sccc3c2)C1` [Compound A, 1-(3-(2-(1-benzothiophen-5-yl)ethoxy)propyl)azetidin-3-ol] as the molecule, how does the “Change in the volume of the whole brain and the hippocampus versus placebo group (in words)” value [1, 3] read?
**A.** volume reduction tended to be smaller

**Q.** What about the “Volume reduction of the whole brain and the hippocampus versus placebo group (in words)” value ([1]; Compound A high dose group, analysis of whole brain and 101 areas) of the same molecule?
**A.** same tendency as in the low dose group was observed

**Q.** And the “Volume reduction of the whole brain and the hippocampus versus placebo group (in words)” value ([1]; Compound A low dose group, analysis of whole brain and 101 areas (Nos. 6 and 14 in Table 2))?
**A.** tended to be suppressed

**Q.** And the “Change in brain volume, Hippocampus, Least square means” value [1, 4]?
**A.** -0.31 mL

**Q.** And the “Change in brain volume, Whole brain, Least square means” value [1, 4]?
**A.** -20.05 mL

**Q.** And the “Change in brain volume, Hippocampus, Difference from placebo group” value ([1]; High dose group)?
**A.** 0.08 mL

**Q.** What about the “Change in brain volume, Whole brain, Difference from placebo group” value ([1]; High dose group) of the same molecule?
**A.** 3.94 mL

**Q.** What about the “Change in brain volume, Hippocampus, Least square means” value [1, 5] of the same molecule?
**A.** -0.27 mL

**Q.** And the “Change in brain volume, Whole brain, Least square means” value [1, 5]?
**A.** -21.37 mL

**Q.** What about the “Change in brain volume, Hippocampus, Difference from placebo group” value ([1]; Low dose group) of the same molecule?
**A.** 0.12 mL

**Q.** What about the “Change in brain volume, Whole brain, Difference from placebo group” value ([1]; Low dose group) of the same molecule?
**A.** 2.63 mL

**Q.** What about the “Change in brain volume, Mean value, Right-Cerebellum-White-Matter” value ([1]; Low dose group, week 52 from baseline, whole brain and 101 areas analysis) of the same molecule?
**A.** −0.89

**Q.** And the “Change in the volume of the whole brain and the hippocampus versus placebo group (in words)” value [2, 3]?
**A.** volume reduction tended to be smaller

**Q.** And the “Change in brain volume, Hippocampus, Mean change” value [2, 6]?
**A.** -0.21 mL

**Q.** What about the “Change in brain volume, Whole brain, Mean change” value [2, 6] of the same molecule?
**A.** -3.83 mL

**Q.** What about the “Change in brain volume, Hippocampus, Difference from placebo group” value [2, 7] of the same molecule?
**A.** 0.09 mL

**Q.** What about the “Change in brain volume, Whole brain, Difference from placebo group” value [2, 7] of the same molecule?
**A.** 3.41 mL
